The values that follow come from paper PMC8585091, “Central Carbon Metabolism, Sodium-Motive Electron Transfer, and Ammonium Formation by the Vaginal Pathogen Prevotella bivia” (International Journal of Molecular Sciences, 2021).

The target in this assay is T1, cytochrome bd quinol oxidase (Prevotella bivia, UniProt I4Z6X5).
T1 construct: gene PrebiDRAFT_0174; native complex in DDM-solubilized membranes, not purified; ORFs cyd-2 1143 bp and cyd-1 1536 bp; with Cytochrome bd ubiquinol oxidase subunit II
T1 sequence (I4Z6X5 1-511): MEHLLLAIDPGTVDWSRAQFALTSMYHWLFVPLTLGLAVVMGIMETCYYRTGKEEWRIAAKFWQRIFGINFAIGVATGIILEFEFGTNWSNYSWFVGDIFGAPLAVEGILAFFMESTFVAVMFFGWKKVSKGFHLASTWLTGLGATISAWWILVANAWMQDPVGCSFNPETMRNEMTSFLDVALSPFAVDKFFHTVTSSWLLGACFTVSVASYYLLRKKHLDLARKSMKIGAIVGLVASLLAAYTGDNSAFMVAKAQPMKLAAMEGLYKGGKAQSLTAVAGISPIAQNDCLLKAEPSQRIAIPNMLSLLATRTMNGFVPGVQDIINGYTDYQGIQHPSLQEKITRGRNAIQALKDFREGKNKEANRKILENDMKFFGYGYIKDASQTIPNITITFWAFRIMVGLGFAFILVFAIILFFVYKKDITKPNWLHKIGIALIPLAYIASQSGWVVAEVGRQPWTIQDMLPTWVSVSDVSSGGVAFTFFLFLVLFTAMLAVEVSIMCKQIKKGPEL
T1 sequence (I4Z6X4 1-380 partner): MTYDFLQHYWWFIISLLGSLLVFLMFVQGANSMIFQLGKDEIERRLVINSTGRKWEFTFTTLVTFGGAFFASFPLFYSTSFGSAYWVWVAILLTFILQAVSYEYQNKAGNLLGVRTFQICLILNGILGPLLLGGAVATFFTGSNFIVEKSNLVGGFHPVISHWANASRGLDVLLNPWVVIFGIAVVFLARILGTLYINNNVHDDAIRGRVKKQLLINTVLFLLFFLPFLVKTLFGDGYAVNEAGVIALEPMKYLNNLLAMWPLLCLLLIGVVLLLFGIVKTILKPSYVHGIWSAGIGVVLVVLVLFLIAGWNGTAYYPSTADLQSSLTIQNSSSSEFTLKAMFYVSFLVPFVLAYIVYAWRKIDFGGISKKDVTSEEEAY
The assay is described as follows: DMNH2 oxidation with H2O2 (peroxidase activity), double-beam photometer. The assay is classed as biochemical. To be noted: solubilized membranes; 200 µM DMNH2, H2O2 as acceptor, pH 7.0, 100 mM NaCl, anoxic.

With `Cc1c(C)c(O)c2ccccc2c1O` [2,3-dimethyl-1,4-naphthoquinol], the “DMNH2 oxidation with H2O2 (peroxidase activity), double-beam photometer” value is “Solubilized membranes catalyzed the oxidation of the DMNH2 with H2O2 as an electron acceptor”.
